Numbered stars: 1 amine (or outer) side, 2 acyl side, 3 side chain; on linkers, the order of the positions; unused ones are H or OH. Square brackets hold non-standard residues; d marks the D form. Peptide text beside a SMILES is read from it. * marks the point of attachment. ξ: configuration not given here. X1 = O=C(O)c1cc(NC(=S)*)ccc1-c1c2ccc(=O)cc-2oc2cc(O)ccc12; N(2-(2-PhOPh)Et)Gly = O=C(O)CNCCc1ccccc1Oc1ccccc1; Gly(N-3,5-(OMe)2-Ph) = COc1cc(NCC(=O)O)cc(OC)c1; X2 = COc1ccc([C@H](C)N(CC(=O)[*:2])[*:1])cc1; Ala(cPent) = N[C@@H](CC1CCCC1)C(=O)O; N((CH2)3OiPr)Gly = CC(C)OCCCNCC(=O)O; Cbz = O=C(OCc1ccccc1)*; ξI = CCC(C)C(N)C(=O)O; βAla = NCCC(=O)O; ξA = CC(N)C(=O)O
Legend:
[1] = target: Tumour suppressor protein p53/Mdm4 (Homo sapiens, UniProt O15151+P04637); test: Inhibition of human DMX-p53 protein-protein interaction […]; type: protein assay
Tumour suppressor protein p53/Mdm4, sequence (P04637 whole entry): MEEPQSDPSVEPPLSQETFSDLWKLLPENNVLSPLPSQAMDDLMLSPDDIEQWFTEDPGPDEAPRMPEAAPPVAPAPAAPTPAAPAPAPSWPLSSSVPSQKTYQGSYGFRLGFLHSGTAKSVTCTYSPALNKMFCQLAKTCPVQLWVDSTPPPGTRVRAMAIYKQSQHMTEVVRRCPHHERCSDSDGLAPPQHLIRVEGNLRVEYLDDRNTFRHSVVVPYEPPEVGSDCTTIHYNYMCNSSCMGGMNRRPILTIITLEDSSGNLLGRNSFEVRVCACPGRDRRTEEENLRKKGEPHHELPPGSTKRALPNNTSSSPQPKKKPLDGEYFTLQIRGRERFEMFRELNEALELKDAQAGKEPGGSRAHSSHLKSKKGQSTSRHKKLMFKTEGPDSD
Tumour suppressor protein p53/Mdm4, sequence (O15151 whole entry): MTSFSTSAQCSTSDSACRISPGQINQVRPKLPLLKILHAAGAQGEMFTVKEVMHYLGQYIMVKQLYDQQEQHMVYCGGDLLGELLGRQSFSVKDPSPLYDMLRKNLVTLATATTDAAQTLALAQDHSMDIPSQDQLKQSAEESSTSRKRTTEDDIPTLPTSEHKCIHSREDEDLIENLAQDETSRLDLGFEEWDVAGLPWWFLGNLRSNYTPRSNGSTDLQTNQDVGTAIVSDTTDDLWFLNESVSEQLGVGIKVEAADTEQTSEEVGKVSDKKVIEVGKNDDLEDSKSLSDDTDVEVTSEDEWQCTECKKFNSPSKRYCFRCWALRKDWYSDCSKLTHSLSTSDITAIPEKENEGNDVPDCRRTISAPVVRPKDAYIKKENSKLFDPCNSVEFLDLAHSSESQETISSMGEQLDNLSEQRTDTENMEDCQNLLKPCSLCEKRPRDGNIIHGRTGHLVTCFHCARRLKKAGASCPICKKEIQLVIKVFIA

[2] = target: Catenin beta-1/Transcription factor 7 (Homo sapiens) (UniProt P36402+P35222); test: Binding affinity to beta-catenin/Tcf (unknown origin) assessed as gibbs free energy change; type: protein assay
[3] = target: Adenomatous polyposis coli protein (Homo sapiens, UniProt P25054); test: Binding affinity to APC (unknown origin) assessed as inhibition constant by ITC analysis
Heat shock protein HSP90 = Heat shock protein HSP90 (Homo sapiens, UniProt P07900+P08238); test: Binding affinity to HSP90 (unknown origin) assessed as dissociation constant; type: protein assay
[4] = Inhibition of full length GST-tagged Wnt (unknown origin) by luciferase assay; set-up: species or system Homo sapiens
[5] = target: Catenin beta-1/Transcription factor 7 (Homo sapiens, UniProt P35222+P36402); test: Inhibition of N-terminal beta-catenin/full length myc-tagged TCF (unknown origin) trasfected in HEK293 cells measured for 48 hrs by; type: cell-based
[6] = target: Histone-lysine N-methyltransferase 2A (Homo sapiens, UniProt Q03164); test: Competitive binding affinity to full length wild type MLL (unknown origin)
Histone-lysine N-methyltransferase 2A, sequence (Q03164 1-2718 limits assumed): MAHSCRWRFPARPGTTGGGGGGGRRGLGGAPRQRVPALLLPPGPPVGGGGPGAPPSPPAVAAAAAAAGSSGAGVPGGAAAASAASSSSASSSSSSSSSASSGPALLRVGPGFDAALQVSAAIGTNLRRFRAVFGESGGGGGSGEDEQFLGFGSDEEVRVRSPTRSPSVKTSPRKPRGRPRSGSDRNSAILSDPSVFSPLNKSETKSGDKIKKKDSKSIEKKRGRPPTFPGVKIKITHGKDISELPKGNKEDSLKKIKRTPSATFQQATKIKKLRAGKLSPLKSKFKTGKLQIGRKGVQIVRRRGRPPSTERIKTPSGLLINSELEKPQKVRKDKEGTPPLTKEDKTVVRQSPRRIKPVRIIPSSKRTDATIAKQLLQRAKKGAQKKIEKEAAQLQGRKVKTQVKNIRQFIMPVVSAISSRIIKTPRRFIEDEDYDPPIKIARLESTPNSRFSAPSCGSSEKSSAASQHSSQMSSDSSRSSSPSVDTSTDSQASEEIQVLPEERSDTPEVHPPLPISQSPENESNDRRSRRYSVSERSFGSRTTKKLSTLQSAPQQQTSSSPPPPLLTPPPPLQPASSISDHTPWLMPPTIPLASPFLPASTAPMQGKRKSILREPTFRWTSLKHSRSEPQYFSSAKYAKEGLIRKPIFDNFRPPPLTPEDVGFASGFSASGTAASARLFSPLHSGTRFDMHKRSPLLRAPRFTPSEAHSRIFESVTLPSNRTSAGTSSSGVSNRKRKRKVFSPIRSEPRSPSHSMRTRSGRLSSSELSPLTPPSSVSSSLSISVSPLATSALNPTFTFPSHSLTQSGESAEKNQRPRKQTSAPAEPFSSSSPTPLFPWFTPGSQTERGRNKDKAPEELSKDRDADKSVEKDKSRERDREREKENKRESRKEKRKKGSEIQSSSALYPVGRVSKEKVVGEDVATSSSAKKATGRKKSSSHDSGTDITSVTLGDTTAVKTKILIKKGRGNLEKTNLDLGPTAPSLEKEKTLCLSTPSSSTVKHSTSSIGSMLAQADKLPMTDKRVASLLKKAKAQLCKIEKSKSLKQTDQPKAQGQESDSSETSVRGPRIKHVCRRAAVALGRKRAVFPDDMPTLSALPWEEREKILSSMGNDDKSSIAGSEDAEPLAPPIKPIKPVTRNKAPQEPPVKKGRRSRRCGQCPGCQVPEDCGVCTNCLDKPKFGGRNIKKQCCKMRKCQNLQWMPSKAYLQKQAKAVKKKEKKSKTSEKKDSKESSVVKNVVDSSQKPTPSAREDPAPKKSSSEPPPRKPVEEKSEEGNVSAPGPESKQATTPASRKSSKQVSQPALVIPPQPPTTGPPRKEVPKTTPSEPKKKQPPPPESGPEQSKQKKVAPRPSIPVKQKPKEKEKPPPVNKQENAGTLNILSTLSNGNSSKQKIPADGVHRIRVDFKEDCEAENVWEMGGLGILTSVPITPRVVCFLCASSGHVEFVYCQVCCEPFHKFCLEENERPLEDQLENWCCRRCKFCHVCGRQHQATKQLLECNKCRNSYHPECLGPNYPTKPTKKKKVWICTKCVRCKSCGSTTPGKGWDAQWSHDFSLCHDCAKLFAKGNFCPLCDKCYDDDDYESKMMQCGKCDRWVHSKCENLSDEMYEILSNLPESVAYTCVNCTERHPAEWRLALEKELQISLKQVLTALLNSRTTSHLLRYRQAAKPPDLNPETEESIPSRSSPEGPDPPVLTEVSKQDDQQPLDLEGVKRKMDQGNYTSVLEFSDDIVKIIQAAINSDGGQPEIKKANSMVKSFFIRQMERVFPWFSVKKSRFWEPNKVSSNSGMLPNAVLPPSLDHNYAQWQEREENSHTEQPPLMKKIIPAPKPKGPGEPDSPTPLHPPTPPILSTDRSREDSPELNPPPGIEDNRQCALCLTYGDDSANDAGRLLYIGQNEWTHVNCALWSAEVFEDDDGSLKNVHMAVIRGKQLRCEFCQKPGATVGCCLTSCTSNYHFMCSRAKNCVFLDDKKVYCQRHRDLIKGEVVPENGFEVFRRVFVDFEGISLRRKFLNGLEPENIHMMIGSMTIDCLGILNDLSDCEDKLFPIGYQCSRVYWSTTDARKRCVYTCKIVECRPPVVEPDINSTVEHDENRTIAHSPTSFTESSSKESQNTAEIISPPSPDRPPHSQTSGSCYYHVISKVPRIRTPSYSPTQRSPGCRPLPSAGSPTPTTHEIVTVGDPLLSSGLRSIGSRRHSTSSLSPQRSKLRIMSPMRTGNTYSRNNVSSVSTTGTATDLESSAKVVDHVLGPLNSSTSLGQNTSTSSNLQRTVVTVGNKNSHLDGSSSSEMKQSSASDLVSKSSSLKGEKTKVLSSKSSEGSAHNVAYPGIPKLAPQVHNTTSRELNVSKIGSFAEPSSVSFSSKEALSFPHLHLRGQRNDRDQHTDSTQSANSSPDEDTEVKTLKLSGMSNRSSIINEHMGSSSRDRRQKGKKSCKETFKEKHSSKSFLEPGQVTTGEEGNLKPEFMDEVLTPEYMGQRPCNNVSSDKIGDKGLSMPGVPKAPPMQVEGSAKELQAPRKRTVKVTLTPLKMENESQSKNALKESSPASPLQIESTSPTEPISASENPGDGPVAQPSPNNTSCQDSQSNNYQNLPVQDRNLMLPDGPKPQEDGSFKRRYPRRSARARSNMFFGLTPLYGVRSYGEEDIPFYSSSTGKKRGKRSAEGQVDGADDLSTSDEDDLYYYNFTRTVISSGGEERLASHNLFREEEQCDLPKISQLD
Histone-lysine N-methyltransferase 2A, sequence (Q03164 2719-3969 limits assumed): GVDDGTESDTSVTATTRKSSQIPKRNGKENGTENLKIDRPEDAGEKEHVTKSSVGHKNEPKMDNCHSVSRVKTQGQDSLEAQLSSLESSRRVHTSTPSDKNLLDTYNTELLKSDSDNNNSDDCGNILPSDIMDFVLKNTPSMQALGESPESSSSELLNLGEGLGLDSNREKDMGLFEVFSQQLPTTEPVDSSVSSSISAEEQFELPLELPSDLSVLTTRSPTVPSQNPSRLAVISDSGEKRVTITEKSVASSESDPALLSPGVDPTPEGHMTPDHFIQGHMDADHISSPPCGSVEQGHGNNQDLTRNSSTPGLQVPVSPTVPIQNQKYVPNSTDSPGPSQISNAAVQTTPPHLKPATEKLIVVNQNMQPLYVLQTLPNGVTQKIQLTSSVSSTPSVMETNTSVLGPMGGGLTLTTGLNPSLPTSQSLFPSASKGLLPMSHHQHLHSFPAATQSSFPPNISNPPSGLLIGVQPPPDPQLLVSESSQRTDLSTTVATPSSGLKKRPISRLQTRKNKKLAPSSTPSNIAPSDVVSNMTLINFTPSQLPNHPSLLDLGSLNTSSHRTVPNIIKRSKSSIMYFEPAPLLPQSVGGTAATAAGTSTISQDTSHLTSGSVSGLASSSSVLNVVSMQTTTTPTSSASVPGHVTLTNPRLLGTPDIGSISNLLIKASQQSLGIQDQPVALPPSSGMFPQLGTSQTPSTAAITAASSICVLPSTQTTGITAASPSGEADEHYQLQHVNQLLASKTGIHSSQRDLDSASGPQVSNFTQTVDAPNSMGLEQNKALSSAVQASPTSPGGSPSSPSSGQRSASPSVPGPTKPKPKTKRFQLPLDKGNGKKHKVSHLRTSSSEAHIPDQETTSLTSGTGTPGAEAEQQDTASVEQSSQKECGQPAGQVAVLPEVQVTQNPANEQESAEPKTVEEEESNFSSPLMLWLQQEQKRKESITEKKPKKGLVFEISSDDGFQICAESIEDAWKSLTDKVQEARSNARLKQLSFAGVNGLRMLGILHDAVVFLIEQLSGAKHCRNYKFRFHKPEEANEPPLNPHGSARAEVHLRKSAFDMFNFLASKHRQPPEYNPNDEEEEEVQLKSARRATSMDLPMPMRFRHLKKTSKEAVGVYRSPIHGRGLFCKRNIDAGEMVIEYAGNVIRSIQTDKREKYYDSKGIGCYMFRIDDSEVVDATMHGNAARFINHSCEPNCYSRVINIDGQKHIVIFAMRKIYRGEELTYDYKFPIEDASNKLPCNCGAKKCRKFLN

[7] = Binding affinity to APC/ASEF (unknown origin) protein protein interaction assessed as dissociation constant by ITC analysis; set-up: species or system Homo sapiens

| Compound | IC50 [1] [µM] | other results |
| --- | --- | --- |
| C[C@](O)(c1cccc(F)c1)c1cn(C2O[C@H](CO)[C@@H](O)[C@H](O)[C@H]2O)nn1 (stereo partly drawn) | 0.00024 |  |
| COCCN1CC(=O)N(CCc2ccc(OC)cc2)CC(=O)N(c2cc(OC)cc(OC)c2)CC(=O)N(C(C)c2ccc(OC)cc2)CC(=O)N(C(C)c2ccc(OC)cc2)CC(=O)N[C@H](C)C1=O (stereo partly drawn) |  | deltaG [2]: -15.9 kcal/mol |
| CC(=O)N[C@@H]1C(n2cc(-c3ccc(F)cc3F)nn2)O[C@H](COCc2ccccc2)[C@H](OCc2ccccc2)[C@@H]1OCc1ccccc1 (stereo partly drawn) | > 0.1 |  |
| O=C(N[C@@H](Cn1cc(-c2ccccc2)nn1)C(=O)O)OCC1c2ccccc2-c2ccccc21 | 0.00246 |  |
| C[C@H](NC(=O)OCc1ccccc1)C(=O)NCC(=O)N[C@@H](CCC(=O)O)C(=O)N[C@@H](C)C(=O)N[C@@H](CC1CCCC1)C(=O)N[C@@H](Cc1ccc(O)cc1)C(=O)N[C@@H](CCC(=O)O)C(N)=O (Cbz-AGEA[Ala(cPent)]YE-NH2) |  | Ki [3]: 0.015 µM |
| CC(=O)N[C@@H]1C(n2cc([C@@](C)(O)c3cccc(F)c3)nn2)O[C@H](COCc2ccccc2)[C@H](OCc2ccccc2)[C@@H]1OCc1ccccc1 (stereo partly drawn) | 0.0224 | Kd (Heat shock protein HSP90): 21.1 µM |
| OC[C@H]1OC(n2cc(-c3ccc(F)cc3F)nn2)[C@H](O)[C@@H](O)[C@@H]1O (stereo partly drawn) | 0.0001 |  |
| COc1ccc([C@H](C)N2CC(=O)N[C@H](C)C(=O)N(CCc3ccccc3Oc3ccccc3)CC(=O)N(c3cc(OC)cc(OC)c3)CC(=O)N(CCCOC(C)C)CC(=O)N([C@@H](C)c3ccc(OC)cc3)CC2=O)cc1 (cyclo([dA][N(2-(2-PhOPh)Et)Gly][Gly(N-3,5-(OMe)2-Ph)][N((CH2)3OiPr)Gly][X2][X2])) |  | IC50 [4]: 0.105 µM; IC50 [5]: 5.44 µM |
| C[C@](O)(c1ccccc1)c1cn(C[C@H](NC(=O)OCC2c3ccccc3-c3ccccc32)C(=O)O)nn1 | 0.00577 |  |
| C[C@](O)(c1cccc(F)c1)c1cn(CSc2ccccc2)nn1 | 0.008 |  |
| Cc1cn([C@H]2C[C@H](n3cc([C@]4(O)CC[C@H]5[C@@H]6CCc7cc(O)ccc7[C@H]6CC[C@@]54C)nn3)[C@@H](CO)O2)c(=O)[nH]c1=O | 0.0124 |  |
| Fc1ccc(-c2cn(CSc3ccccc3)nn2)c(F)c1 | > 0.1 |  |
| CC[C@H](C)[C@H](NC(=O)[C@H](CC(=O)O)NC(=O)[C@H](CO)NC(=O)CCNC(=S)Nc1ccc(-c2c3ccc(=O)cc-3oc3cc(O)ccc23)c(C(=O)O)c1)C(=O)N[C@@H](CCSC)C(=O)N[C@@H](CC(=O)O)C(=O)N[C@@H](Cc1ccccc1)C(=O)N[C@H](C(=O)N[C@@H](CC(C)C)C(=O)N[C@@H](CCCCN)C(=O)N[C@@H](CC(N)=O)C(=O)N[C@H](C(=O)N1CCC[C@H]1C(N)=O)[C@@H](C)O)C(C)C ({X1-βAla}-SDIMDFVLKNTP-NH2) |  | Kd [6]: > 100 µM; Ki [6]: > 1000 µM |
| CCC(C)C(NC(=O)C(C)NC(=O)[C@H](CC(C)C)NC(=O)[C@H](CCC(N)=O)NC(=O)[C@H](CCC(=O)O)NC(=O)CNC(=O)CNC(C)=O)C(N)=O (stereo partly drawn) (Ac-GGEQL[ξA][ξI]-NH2) |  | Kd [7]: 0.018 µM |
| O=C(N[C@@H](Cn1cc(-c2ccc(F)cc2F)nn1)C(=O)O)OCC1c2ccccc2-c2ccccc21 | 0.00174 |  |

Reference: ChEMBL document CHEMBL5230108, “Computational methods-guided design of modulators targeting protein-protein interactions (PPIs)” (Eur J Med Chem, 2020)
